The results in this text go back to US10196359B2, “2-alkyloxy benzene formyl arylamine compound and pharmaceutical use thereof” (FUDAN UNIVERSITY, priority 2014, dated 2019).

In this assay the target is T1, Sphingomyelin Synthase 2 (SMS2) (Homo sapiens, UniProt Q8NHU3).
T1 construct: made in house; used as homogenate
T1 sequence (Q8NHU3 1-365): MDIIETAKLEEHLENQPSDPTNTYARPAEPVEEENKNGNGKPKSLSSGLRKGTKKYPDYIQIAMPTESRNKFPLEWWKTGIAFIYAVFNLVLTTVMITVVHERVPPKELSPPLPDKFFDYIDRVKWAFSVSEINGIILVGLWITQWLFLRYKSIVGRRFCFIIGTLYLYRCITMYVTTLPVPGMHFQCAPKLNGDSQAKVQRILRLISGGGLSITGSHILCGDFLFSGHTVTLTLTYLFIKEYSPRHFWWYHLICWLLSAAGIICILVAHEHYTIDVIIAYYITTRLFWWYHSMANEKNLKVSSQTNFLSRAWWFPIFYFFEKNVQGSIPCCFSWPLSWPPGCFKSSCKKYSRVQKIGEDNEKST
As to the kind of experiment: In vitro inhibition of sphingomyelin synthase 2, HPLC fluorogenic quantitative detecting method (C6-NBD-ceramide to C6-NBD-SM, SMS2 high-expressed insect cell homogenate). The format is biochemical. The settings on record: for IC50: read-out: SMS2 Median Inhibitory Concentration IC50. The text has this:
The second aim of the present invention is to show the use of 2-alkoxy benzene formyl arylamines in preparing SMS small-molecule inhibitors. This invention evaluate SMS inhibitory activity of 2-alkoxy benzene formyl arylamines as scheme I through HPLC fluorogenic quantitative detecting method reported (Xiaodong Deng; Hong Sun; et al. Analytical Letters, 2012, 45:12, 1581-1589), which can make it possible to calculate the catalytic activity difference of SMS treated with inhibitors or not through content changes of NBD-ceramide and NBD-sphingomyelin.
9. The organic solvents were purchased from Shanghai Sinopharm Reagent Company; methanol is of HPLC grade; water is ultrapure water filtrated by Milli-Q pump and deionized and ultrafiltrated by 0.22 μm ultrafiltration membrane. Other biological supplies are purchased in domestic companies. 10. Preparation of SMS homogenate extraction buffer (Buffer1): (50 mM Tris hydrochloride, pH 7.4, 5% anhydrous sucrose, 1 mM ethylenediaminetetraacetic acid) 1.2114 g tris(hydroxymethyl)aminomethane hydrochloride (Tris-HCl) was dissolved in 100 ml distilled water. Then 84 ml 0.1 mol/L hydrochloric acid was added. Constant volume to 200 ml. Finally, 10 g sucrose and 58.45 mg EDTA were dissolved in the mixture. 11. Preparation of SMS test buffer […]: (100 mM Hepes, 30 mM MnCl2, 3% fatty acid free BSA): 1.1916 g 4-(2-hydroxyethyl)-1-peperazineethanesulfonic acid (Hepes), 0.2969 g MnCl2.4H2O and 0.3 g fatty acid free bovine serum albumin were dissolved in distilled water then constant volume to 50 ml. 12. Preparation of under tested compound solution: To each accurate weighed compound for 1˜2 mg, an appropriate amount of DMSO was added to formulate a stock solution of 6 mM precisely. To a certain volume of the DMSO stock solution of the test compound, the appropriate volume of DMSO was added to dilute the solution to the desired concentration. 13. SMS2 high-expressed insect cell homogenate was prepared by Xu Yanhui group from Institutes of Biomedical Sciences, Fudan University. Part 1 Activity Assay for Inhibition of 2-Alkoxy-Benzoyl Aromatic Amines to Sphingomyelin Synthase 2
250 μL tri-distilled water, 30 μL Buffer2, 4 μL SMS2 high-expressed insect cell homogenate (total protein content is 0.5 μg/μL) and 10 μL DMSO or DMSO solution of under tested compound were added to 1.5 mL eppendorf tube, vortex mixed for 30 seconds and then incubated in a 37° C. water bath for 0.5 h. 3 μL ethanol solution of DMPC (40 mM) and 3 μL ethanol solution of C6-NBD-Ceramide (1.16 mM) were added, vortex mixed for 30 seconds, and then incubate in a 37° C. water bath for 2.0 hours. To it 600 μL anhydrous ethanol was added vortex mixed for 1 minute and centrifuged 10 minutes in 10000 rpm and 600 μL supernatant was taken out and stored at 4° C. for HPLC analysis.
Using the same HPLC fluorogenic quantitative detecting method as reference (Xiaodong Deng; Hong Sun; et al. Analytical Letters, 2012, 45:12, 1581-1589) to analysize samples obtained above. Analysize and record peak areas of C6-NBD-SM (Asm) and C6-NBD-Ceramide (Acer) of each sample from blank group, positive control group (compound D2) and under tested compound group. The data were parallelly determined for 3 times. Calculate inhibition rate from the formula below: […]
The DMSO stock solution of under tested compound (6 mM) was diluted stepwise into five concentration gradient. 10 μL solution of each concentration was added into the trial system to prepare samples with the method mentioned in the first step of application case 12. The Asm values of the five concentration solution of tested compound were measured, and the inhibition rate under the five concentration were calculated and fitted to obtain median inhibitory concentration (IC50). Each compound was measured three parallel groups. SMS2 median inhibitory concentration of Scheme I-1˜I-60 are listed below in Table 1: […]

Setting [1] is: at 10 μM, read-out: inhibition rate.
[2] abbreviates: five concentrations, three parallel groups, experimental value.

Read-outs that look alike come from different tables or passages of the source.

Consider `O=C(Nc1cccnc1)c1ccc(Cl)cc1OCc1ccccc1Cl` [Scheme I-56, 4-Chloro-2-(2-chloro-benzyloxy)-N-(pyridin-3-yl) benzamide], for which the inhibition at 10 µM under setting [1] stood at 20%. In addition, the IC50 under setting [2] is above 50000 nM.
As for “2-((2-benzyloxy) benzyloxy)-N-(pyridin-3-yl) benzamide [Scheme I-26]”, the inhibition rate (at 10 μM) is reported as 76.9%. The IC50 under setting [2] was 2200 nM.
For `CCCCCCCOc1ccccc1COc1ccccc1C(=O)Nc1cccnc1` [Scheme I-38, 2-((2-heptyloxy)benzyloxy)-N-(pyridin-3-yl) benzamide], the inhibition at 10 µM under setting [1] worked out at 90.5%. The IC50 under setting [2] worked out at 500 nM.
With `CCCCCCOc1ccccc1COc1ccccc1C(=O)Nc1cccnc1` [Scheme I-37, 2-((2-hexyloxy)benzyloxy)-N-(pyridin-3-yl) benzamide], under “at 10 μM”, the inhibition rate was found to be 90.2%. For the same compound, under setting [2], the IC50 stood at 700 nM.
In turn, “2-((2-methoxy-5-chloro) benzyloxy)-N-(pyridin-3-yl) benzamide [Scheme I-31]” returned an inhibition rate (at 10 μM) of 92.4%. The IC50 under setting [2] worked out at 700 nM.
Regarding `O=C(Nc1cccnc1)c1ccccc1OCc1cccc(Cl)c1F` [Scheme I-18, 2-((2-fluoro-3-chloro)benzyloxy)-N-(pyridin-3-yl) benzamide], the IC50 is 3100 nM. Moreover, the inhibition at 5 µM (read-out: inhibition rate) was 55.2%.
In the case of `O=C(Nc1cccnc1)c1ccccc1OCc1ccccc1OCCCCCCCl` [Scheme I-36, 2-(2-(6-Chloro-hexyloxy)benzyloxy)-N-(pyridin-3-yl) benzamide], under setting [1], the inhibition at 10 µM came to 91.5%. Besides, the IC50 under setting [2] turned out to be 500 nM.
Turning to `O=C(Nc1ccccn1)c1ccccc1OCc1ccccc1` [Scheme I-52, 2-benzyloxy-N-(pyridin-2-yl) benzamide], the inhibition at 100 µM (at 100 μM, read-out: inhibition rate) was 60.1%. Also, the IC50 under setting [2] came to 11700 nM.
In the case of “2-((2,6-dimethyl) benzyloxy)-N-(pyridin-3-yl) benzamide [Scheme I-29]”, for the setting “at 10 μM”, the inhibition rate came to 88.8%. In addition, the IC50 under setting [2] came out at 900 nM.
As to “2-(3-cyano-benzyloxy)-N-(pyridin-3-yl) benzamide [Scheme I-4]”, the inhibition rate (at 50 μM) is 66.0%. Moreover, the IC50 under setting [2] was 60700 nM.
As to `O=C(Nc1cccnc1)c1ccccc1OCc1cccc(C(F)(F)F)c1` [Scheme I-41, 2-((3-trifluoromethyl)benzyloxy)-N-(pyridin-3-yl) benzamide], the inhibition at 10 µM under setting [1] is 10%. The IC50 under setting [2] is above 100000 nM.
`O=C(Nc1cccnc1)c1ccccc1OCc1cccc([N+](=O)[O-])c1` [Scheme I-3, 2-(3-nitro-benzyloxy)-N-(pyridin-3-yl) benzamide]: the inhibition at 50 µM (at 50 μM, read-out: inhibition rate) stood at 64.6%. Under setting [2], the IC50 was above 50000 nM.
As to “2-((2-ethoxy) benzyloxy)-N-(pyridin-3-yl) benzamide [Scheme I-30]”, the inhibition rate (at 10 μM) was 86.3%. Moreover, under setting [2], the IC50 was 1200 nM.
Taken in the same sequence, the figures for “2-((3-methoxy) benzyloxy)-N-(pyridin-3-yl) benzamide [Scheme I-23]” were 59.8% and 5700 nM.
Turning to `COCCOc1ccc(Cl)cc1COc1ccccc1C(=O)Nc1cccnc1` [Scheme I-50, 2-((5-chloro-2-(2-methoxyethoxy))benzyloxy)-N-(pyridin-3-yl) benzamide], the inhibition at 10 µM under setting [1] came out at 54.2%. Further, the IC50 under setting [2] was 11600 nM.
In the same order, the values of `CCOC(=O)c1ccc(COc2ccccc2C(=O)Nc2cccnc2)cc1` [Scheme I-19, 4-((2-(pyridin-3-ylcarbamoyl)phenoxy)methyl) benzene carboxylic acid ethyl ester] are 2.9% and above 100000 nM.
As for “2-((4-methyl) benzyloxy)-N-(pyridin-3-yl) benzamide [Scheme I-14]”, where the note is “at 50 μM”, the inhibition rate is 69.0%. The IC50 under setting [2] is above 25000 nM.
“2-((4-nitro) benzyloxy)-N-(pyridin-3-yl) benzamide [Scheme I-13]” had an inhibition rate (at 50 μM) of 11.8%. In addition, under setting [2], the IC50 was above 100000 nM.
With `CCOC(=O)COc1cccc(COc2ccccc2C(=O)Nc2cccnc2)c1` [Scheme I-22], the inhibition at 10 µM under setting [1] came out at 15.3%. Moreover, under setting [2], the IC50 was above 100000 nM.
On to `O=C(Nc1cccnc1)c1ccccc1OCc1cccc(Cl)c1` [Scheme I-7, 2-(3-chloro-benzyloxy)-N-(pyridin-3-yl) benzamide], for which the IC50 was 1400 nM. Also, the inhibition at 5 µM (read-out: inhibition rate) stood at 70.6%.
Where the note is “at 10 μM”, “2-((4-ethyl) benzyloxy)-N-(pyridin-3-yl) benzamide [Scheme I-28]” had an inhibition rate of 10.1%. For the same compound, the IC50 under setting [2] is above 100000 nM.
Consider `O=C(Nc1cccnc1)c1ccccc1OCc1cc(Cl)ccc1OCCN1CCOCC1` [Scheme I-51, 2-((5-chloro-2-(2-morpholino-ethoxy))benzyloxy)-N-(pyridin-3-yl) benzamide], for which, under setting [1], the inhibition at 10 µM came to 24.9%. Besides, under setting [2], the IC50 is above 50000 nM.
“2-((2,5-dimethoxy) benzyloxy)-N-(pyridin-3-yl) benzamide [Scheme I-25]” had an inhibition rate (at 10 μM) of 78.9%. Besides, under setting [2], the IC50 stood at 2800 nM.
Regarding `O=C(Nc1cccnc1)c1ccccc1OCc1c(Cl)cccc1Cl` [Scheme I-17, 2-((2,6-dichlorophenyl)benzyloxy)-N-(pyridin-3-yl) benzamide], under “at 5 μM, read-out: inhibition rate”, the inhibition at 5 µM was 77.2%. Further, the IC50 under setting [2] is 700 nM.
Turning to `O=C(Nc1cccnc1)c1ccccc1OCc1c(F)cccc1Cl` [Scheme I-32, 2-((2-chloro-6-fluoro)benzyloxy)-N-(pyridin-3-yl) benzamide], the IC50 came to 1500 nM. Besides, the inhibition at 10 µM (read-out: inhibition rate) worked out at 82.3%.
`COc1ccccc1COc1ccccc1C(=O)Nc1cccnc1` [Scheme I-24, 2-((2-methoxy)benzyloxy)-N-(pyridin-3-yl) benzamide]: the inhibition at 10 µM under setting [1] amounted to 89.4%. In addition, the IC50 under setting [2] is 800 nM.
For the compound `COCCCOc1ccc(Cl)cc1COc1ccccc1C(=O)Nc1cccnc1` [Scheme I-49, 2-((5-chloro-2-(3-methoxy-propoxy))benzyloxy)-N-(pyridin-3-yl) benzamide], the inhibition at 10 µM under setting [1] worked out at 75.3%. Moreover, the IC50 under setting [2] amounted to 4100 nM.
As to `O=C(Nc1cccnc1)c1ccccc1OCc1ccccc1OCCCCCCl` [Scheme I-35, 2-(2-(5-chloro-pentoxy)benzyloxy)-N-(pyridin-3-yl) benzamide], the inhibition at 10 µM under setting [1] amounted to 91.3%. The IC50 under setting [2] came out at 700 nM.
`O=C(O)c1ccc(COc2ccccc2C(=O)Nc2cccnc2)cc1` [Scheme I-46, 4-((2-(pyridin-3-ylcarbamoyl)phenoxy)methyl) benzoic acid]: under setting [1], the inhibition at 10 µM was 2.6%. For the same compound, the IC50 under setting [2] is above 100000 nM.
In the same order, the values of `O=C(Nc1cccnc1)c1ccc(Br)cc1OCc1ccccc1Cl` [Scheme I-58, 4-bromo-2-(2-chloro-benzyloxy)-N-(pyridin-3-yl) benzamide] are 19.4% and above 50000 nM.

The term inhibition denotes the change of the read-out against control, counted positive when it falls.
